From patent US4067997A, “Synergistic microbecidal composition and method” (priority 1976, dated 1978)
Converted amounts (≈) assume the structure as drawn. Like-named read-outs stand apart in the source and are kept apart here.

Assays:
Pseudomonas aeruginosa = assay: MIC, agar dilution method (Example XVI); assay type: cell-based; details: Pseudomonas aeruginosa
Text: (§1) In a manner similar to that described in Example V, the effectiveness of certain food-grade microbecides are compared with mono-esters in an agar dilution method. The very favorable results may be noted from Table 19.

Staphylococcus aureus = assay: MIC, agar dilution method (Example XVI); assay type: cell-based; details: Staphylococcus aureus
Text: as §1

Escherichia coli = assay: MIC, agar dilution method (Example XVI); assay type: cell-based; details: Escherichia coli
Text: as §1

Aspergillus niger = assay: MIC, agar dilution method (Example XVI); assay type: cell-based; details: Aspergillus niger
Text: as §1

Bacillus subtilis = assay: MIC, agar dilution method (Example XVI); assay type: cell-based; details: Bacillus subtilis
Text: as §1

Canadida albicans = assay: MIC, agar dilution method (Example XVI); assay type: cell-based
Text: as §1

S. pyogenes = assay: Growth curve by optical density (Example IV, FIG. 3); assay type: cell-based, streptococcus pyogenes; details: 24 hours
Description: To a series of containers is added 40 ml of Trypticase Soy Broth and 0.5 ml of streptococcus pyogenes (10^8 organisms/ml). To respective containers are added the following: (1) 10 μg of glycerol 1-mono-laurinand 10 μg of glycerol dilaurin; (2) 5 μg of glycerol 1-mono-laurin and 5 μg of glycerol dilaurin; (3) 10 μg of glycerol 1-mono-laurin; and (4) 5 μg of glycerol 1-mono-laurin; and (5) a control without any additives. The rate of growth of the S. pyogenes was followed for 24 hours at 6 hour intervals by reading the optical density of the cultures at […] in a spectrophotometer.

[1] = tested on: nine gram-positive organisms and the yeast/fungus Candida; assay: MIC, broth dilution, over all organisms (Examples I/II); assay type: cell-based
Description: (§2) In order to establish comparative bactericidal and fungicidal results with homologous fatty acids, a series of experiments was performed with thirty straight-chain fatty acids and derivatives thereof. Eight different gram-negative and twelve different gram-positive organisms, representing a very broad spectrum of organisms, were used in these experiments including the fungus Candida (a yeast). Additionally, fatty acids were chosen to show the effects of saturation versus unsaturation, in the fatty acid claim. Standard solutions of the fatty acids and their derivatives were prepared by first dissolving the weighed compounds in 1 to 2 ml of 95% ethanol and immediately pouring this solution into 200 ml of Tripticase Soy Broth. These lipid compounds which are insoluble in water and broth precipitated into very small crystals or droplets. The tubes containing the suspension were warmed to approximately 70° C and were then placed in an ultrasonic tank for further solubilization of the lipid derivatives.
(§3) Standard solutions (or suspensions) at 1,000 μg/ml were twofold serially diluted with additional broth to a concentration of 125 μg/ml. A 4-ml amount of each dilution was then quickly, and with constant agitation, dispensed into appropriately labeled screw-capped glass tubes (16 by 125 mm). The tubes were sterilized with steam at 15 psi for 15 minutes. After sterilization, all tubes were cooled and incubated overnight at 35° C to insure sterility.
(§4) All compounds were compared on a molar (micromoles/milliliter) rather than on a mass basis. In the following lists of organisms used, those followed by a parenthetical number are registered with the American Type Culture Collection (ATCC); the remainder were isolates from Providence Hospital or Northland Laboratory.
Staphylococcus aureus, S. epidermidis, beta-hemolytic streptococci (Group A and non-group A), group D streptococcus, Bacillus subtilis (6051), Sarcina lutea (9431), Micrococcus sp., Candida albicans, Nocardia asteroids (3308), Corynebacterium sp. (10700), and pneumococcus (63001).
(§5) One drop (0.04 ± 0.01 ml) of an 18-hr broth culture containing 10^7 and 10^9 organisms/ml was added to each dilution of the test compound, as well as to a tube of plain broth which served as the positive control. After inoculation, the contents of each tube were well mixed, and the tubes were incubated at 35° C in a 5% carbon dioxide + […] atmosphere.
(§6) The MIC is defined as the lowest concentration of compound at which no […] evidence of growth was observed when turbidity of the inoculated broth dilutions was compared with control tubes. […] Only a one-tube difference between the bactericidal and bacteriostatic concentrations was normally observed.
Table 5 presents a comparison of the C10 and C12 free acids and their glyceryl derivatives, and Table 6 gives the corresponding ranges of activity.
(§7) Standard solutions (1000 μg/ml) of three fatty acids and polyglycerol esters thereof were prepared as described in Example I. Also sucrose esters were prepared by transferring the weighed compounds (0.2 gm. dissolved in 1 ml absolute methanol) into 200 ml of sterile Trypticase Soy Broth (TSB). These standard solutions (1000 μg/ml) were twofold serially diluted with additional sterile broth to a concentration of 125 μg/ml. A 3.8 aliquot of each dilution was asceptically delivered into sterile screw-capped culture tubes. All tubes were incubated overnight at 36° C to insure sterility. The microorganisms used in this example were the same as those used in Example I.
The inoculum, 0.05 ml of an 13-24 hour TSB culture (approximately 10^9 organisms/ml) was asceptically delivered into all dilutions of the compounds, mixed well, and incubated at 36° C. […]

Group A Strep. = assay: MIC of potassium soaps of unsaturated fatty acids (Example III); assay type: cell-based, Group A β-hemolytic Streptococci; details: Table 10, Group A Strep.
Pneumococci = assay: MIC, broth dilution (Examples I/II); assay type: cell-based, pneumococcus (63001); details: Table 1, Pneumococci
Description: as §2, §3, §4, §5, §6, §7
(§8) The inoculum, 0.05 ml of an 13-24 hour TSB culture (approximately 10^9 organisms/ml) was asceptically delivered into all dilutions of the compounds, mixed well, and incubated at 36° C. A tube of inoculated broth without the compound served as a positive control and an uninoculated set of dilutions incubated along with the test dilutions, served as a negative control.
(§9) In those cases in which the test compound itself caused turbidity, an aliquot (0.015 ml) of the mixed broth was inoculated onto an agar plate and incubated at 36° C for examination, as described in Example I. The control procedure of Example I was also repeated. The lauric, capric, and oleic acids were used as internal controls and for comparison to Example I. The minimal inhibitory concentrations (μmole/ml) for the compounds studied are given in Tables 7 and 8.

[2] = tested on: Streptococcus β-hemolytic Non-A; assay: MIC, broth dilution (Examples I/II); assay type: cell-based, beta-hemolytic streptococci non-group A; details: Table 1, Streptococcus β-hemolytic Non-A
Description: as §2, §3, §4, §5, §6, §7, §8, §9

Corynebacteria = assay: MIC, broth dilution (Examples I/II); assay type: cell-based, Corynebacterium sp. (10700); details: Table 1, Corynebacteria
Description: as §2, §3, §4, §5, §6, §7, §8, §9

Nocardia asteroides = assay: MIC, broth dilution (Examples I/II); assay type: cell-based, Nocardia asteroids (3308); details: Table 1, Nocardia asteroides
Description: as §2, §3, §4, §5, §6, §7, §8, §9

Streptococcus Group A = assay: MIC, broth dilution (Examples I/II); assay type: cell-based, beta-hemolytic streptococci Group A; details: Table 1, Streptococcus Group A
Description: as §2, §3, §4, §5, §6, §7, §8, §9

Micrococci = assay: MIC, broth dilution (Examples I/II); assay type: cell-based, Micrococcus sp.; details: Table 1, Micrococci
Description: as §2, §3, §4, §5, §6, §7, §8, §9

S. aureus = assay: MIC, broth dilution (Examples I/II); assay type: cell-based, Staphylococcus aureus; details: Table 1, S. aureus
Description: as §2, §3, §4
One drop (0.04 ± 0.01 ml) of an 18-hr broth culture containing 10^7 and 10^9 organisms/ml was added to each dilution of the test compound, as well as to a tube of plain broth which served as the positive control. […]

[3] = Table 19, agar dilution, read-out: MIC

Molecule `CCCCCCCCCCCC(=O)OCC(O)CO` (centres unmarked) [1-mono-laurin] has an MIC (Pseudomonas aeruginosa) greater than 2500 µg/mL, an MIC (Staphylococcus aureus) of 39 µg/mL (≈ 0.142 mM) and an MIC (Escherichia coli) greater than 2500 µg/mL. For the same molecule, the MIC (Aspergillus niger) was greater than 2500 µg/mL, the MIC (Bacillus subtilis) was 39 µg/mL (≈ 0.142 mM) and the MIC (Canadida albicans) was greater than 2500 µg/mL. For the same molecule, the “Antimicrobial activity in words (growth curve)” value (S. pyogenes) was “responsible for all antimicrobial activity”, the “Activity relative to 2-mono-laurin” value [1] was “as active as the 2-mono-laurin” and the Activity in words ([1]; Table 6 footnote) was “Highly active on all organisms except streptococcus Group D”.
In the case of `CCCCCC=CCCCCCC=CCCCC(=O)O` [.increment.^5 12], the MIC (Group A Strep.) is reported as 20 µM.
In the case of `CCCCCCCC=CCCC=CCCCCC(=O)O` [.increment.^6 10], the MIC (Group A Strep.) is reported as 10 µM.
Work on `CCCCCCC=CCCCC=CCCCCC(=O)O` [.increment.^6 11] yielded an MIC (Group A Strep.) of 20 µM.
Molecule `CCCCCC=CCCCCC=CCCCCC(=O)O` [.increment.^6 12] has an MIC (Group A Strep.) of 10 µM.
Molecule `CCCCCC=CCCCC=CCCCCCC(=O)O` [.increment.^7 12] has an MIC (Group A Strep.) of 20 µM.
In the case of `CCCCC/C=C/CC/C=C/CCCCCCC(=O)O` [.increment.^8 12], the MIC (Group A Strep.) is reported as 20 µM.
Molecule `CCCCCC=CCC=CCCCCCCCC(=O)O` [.increment.^9 12] has an MIC (Group A Strep.) of 10 µM.
`CC/C=C\C/C=C\C/C=C\CCCCCCCC(=O)O` [Linolenic] showed an MIC (Pneumococci) of 179 µM (≈ 49.8 µg/mL), an MIC [2] of 350 µM (≈ 97.5 µg/mL) and an MIC (Corynebacteria) of 179 µM (≈ 49.8 µg/mL). The MIC (Nocardia asteroides) was 488 µM (≈ 136 µg/mL), the MIC (Streptococcus Group A) was 350 µM (≈ 97.5 µg/mL) and the MIC (Micrococci) was 488 µM (≈ 136 µg/mL). It also gave an MIC (S. aureus) of 1790 µM (≈ 498 µg/mL).
For `COC(=O)c1ccc(O)cc1` [Methyl paraben], the MIC (Pseudomonas aeruginosa; [3]) was 5000 µg/mL (≈ 32.9 mM), the MIC (Staphylococcus aureus; [3]) was 5000 µg/mL (≈ 32.9 mM) and the MIC (Escherichia coli; [3]) was 2500 µg/mL (≈ 16.4 mM). It also gave an MIC (Aspergillus niger; [3]) of 2500 µg/mL (≈ 16.4 mM), an MIC (Bacillus subtilis; [3]) of 5000 µg/mL (≈ 32.9 mM) and an MIC (Canadida albicans; [3]) of 2500 µg/mL (≈ 16.4 mM).
`CCCCCC/C=C\CCCCCCCC(=O)[O-].[Na+]` [Palmitoleic acid sodium salt] was tested, and the MIC (Pseudomonas aeruginosa) was greater than 1000 µg/mL, the MIC (Staphylococcus aureus) was 15.6 µg/mL and the MIC (Escherichia coli) was greater than 1000 µg/mL. The MIC (Aspergillus niger) was greater than 1000 µg/mL, the MIC (Bacillus subtilis) was 500 µg/mL and the MIC (Canadida albicans) was greater than 1000 µg/mL.
